The record followed here is patent US20180230160A1, “2-AMINO-7A-PHENYL-3,4,4A,5,7,7A-HEXAHYDROFURO[3,4-B]PYRIDINES AS BACE1 INHIBITORS” (H. Lundbeck A/S, priority 2015, published 2018).

One series concerns P-gp (MDR1). In words: MDCK-MDR1 assay (permeability, efflux ratio). It counts as in vitro ADME. The note with it: dog, Papp BA/Papp AB, 60-minute incubation. How it is done: The permeability of the test compounds was assessed in MDCK-MDR1 cells that were cultured to confluency (4-6 days) in a 96 transwell plate. Test compounds were diluted with the transport buffer (HBSS+1% BSA) to a concentration of 0.5 μM and applied to the apical or basolateral side of the cell monolayer. Permeation of the test compounds from A to B direction or B to A direction was determined in triplicate over a 60-minute incubation time at 37° C. and 5% CO2 with a relative humidity of 95%. Test compounds were quantified by LC-MS/MS analysis based on the peaks area ratios of analyte/IS in both the receiver and donor wells of the transwell plate. The apparent permeability coefficient Papp (cm/s) was calculated using the equation: […]
Where dCr/dt is the cumulative concentration of compound in the receiver chamber as a function of time (μM/s); Vr is the solution volume in the receiver chamber (0.05 mL on the apical side; 0.25 mL on the basolateral side); A is the surface area for the transport, i.e. 0.0804 cm^2 for the area of the monolayer; CO is the initial concentration in the donor chamber (μM).

Series [1] has as its target T1, human BACE1 (Homo sapiens, UniProt P56817). The series can be described thus: BACE1 efficacy assay (FRET-based, commercial BACE1 kit). In kind it is biochemical. The arrangement: purchased Life Technologies P2985. The note with it: 10 μM test compound. The protocol:
The efficacy assay was performed as a FRET-based assay using a commercially available BACE1 kit (Life Technologies, P2985). 2 μl test compound at 10 μM (final concentration) and 15 μl BACE1 enzyme from the kit (final concentration 3 nM) were preincubated for 15 minutes at room temperature before addition of 15 μl of substrate from the kit (250 nM final concentration) and incubated for additional 90 minutes at room temperature. The assay plate was subsequently read in a Pherastar (Ex540/Em590). The enzyme activity observed in presence of test compound were normalized to the enzyme activity observed in presence of buffer and 10 μM (final concentration) of the high affinity BACE1 reference inhibitor (S)-6-[3-Chloro-5-(5-prop-1-ynyl-pyridin-3-yl)-thiophen-2-yl]-2-imino-3,6-dimethyl-tetrahydropyrimidin-4-one, respectively. The efficacy of the test compounds was evaluated at 10 μM (final concentration) and defined as the percent inhibition of the enzyme activity using the equation % inhibition=100%−normalized enzyme activity in percent.

Series [2] has as its target T1, human BACE1. The series can be described thus: BACE1 binding assay (SPA-based radioligand binding). The arrangement: biotin (biotinylated form); made in house; host or cells: Freestyle HEK293 cells. The conditions noted are these: pH 4.5, 10 nM radioligand, Ki=IC50/(1+L/Kd). The protocol: The binding assay was performed as SPA-based assay using a biotinylated form of human BACE1 recombinantly expressed and subsequently purified from Freestyle HEK293 cells. The binding assay was run in a 50 mM sodium acetate buffer, pH 4.5 containing 50 mM NaCl and 0.03% Tween-20 in white clear bottom 384 plates (Corning #3653). 10 nM (final concentration) radioligand ([^3H]—N-((1S,2R)-1-benzyl-3-cyclopropylamino-2-hydroxy-propyl)-5-(methanesulfonyl-methyl-amino)-N—((R)-1-phenyl-ethyl)-isophthalamide) (TRQ11569 purchased from GE Healthcare) was mixed with test compound at a given concentration, 6 nM (final concentration) human BACE1 and 25 μg Streptavidin coated PVT core SPA beads (RPNQ0007, GE Healthcare Life Sciences) in a total volume of 40 μl. Several concentrations of each test compound were tested in the assay for […] determination. The plates were incubated for one hour at room temperature and counted in a Wallac Trilux counter. Total and non-specific binding were determined using buffer and 1 μM (final concentration) of the high affinity BACE1 reference inhibitor (S)-6-[3-chloro-5-(5-prop-1-ynyl-pyridin-3-yl)-thiophen-2-yl]-2-imino-3,6-dimethyl-tetrahydro-pyrimidin-4-one, respectively. For each test compound, a 1050 value (the concentration mediating 50% inhibition of the specific binding of the radioligand) was determined from concentration-response curve and used to calculate the Ki from the equation Ki=IC50/(1+L/Kd), where L and Kd are the final concentration of the radioligand used in the assay and the dissociation constant of the radioligand, respectively. The Kd of the radioligand was determined from saturation binding experiments.

Each structure is given as a SMILES string.

T1 sequence (P56817 46-501): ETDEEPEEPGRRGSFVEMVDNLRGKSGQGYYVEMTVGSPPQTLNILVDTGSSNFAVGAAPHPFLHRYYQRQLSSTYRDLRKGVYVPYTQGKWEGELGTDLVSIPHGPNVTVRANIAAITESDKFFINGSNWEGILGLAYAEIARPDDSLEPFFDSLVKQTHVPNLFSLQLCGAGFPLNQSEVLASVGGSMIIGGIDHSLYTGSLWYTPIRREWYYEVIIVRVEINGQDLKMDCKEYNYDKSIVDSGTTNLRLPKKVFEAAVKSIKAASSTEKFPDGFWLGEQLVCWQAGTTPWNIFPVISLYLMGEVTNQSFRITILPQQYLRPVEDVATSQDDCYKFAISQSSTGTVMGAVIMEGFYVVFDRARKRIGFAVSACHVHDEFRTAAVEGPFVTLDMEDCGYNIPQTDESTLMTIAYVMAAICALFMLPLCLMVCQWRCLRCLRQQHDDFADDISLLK

`NC1=N[C@@]2(c3cc(NC(=O)c4ccc(F)cn4)ccc3F)COC[C@H]2C[C@@]1(F)CF` [Example 20, N-(3-((3S,4aS,7aS)-2-amino-3-fluoro-3-(fluoromethyl)-3,4,4a,5-tetrahydrofuro[3,4-b]pyridin-7a-yl)-4-fluorophenyl)-5-fluoropicolinamide]: the efflux ratio at 60 min, 0.5 μM with P-gp (MDR1) was 0.71. For the same compound, at human BACE1 [1], the inhibition at 10 µM came out at 103%. Moreover, at human BACE1 [2], the Ki was found to be 140 nM.
The corresponding values for `NC1=N[C@@]2(c3cc(NC(=O)c4ccc(F)cn4)cc(F)c3F)COC[C@H]2C[C@@]1(F)CF` [Example 23, N-[3-[(3S,4aS,7aS)-2-amino-3-fluoro-3-(fluoromethyl)-4,4a,5,7-tetrahydrofuro[3,4-b]pyridin-7a-yl]-4,5-difluoro-phenyl]-5-fluoro-pyridine-2-carboxamide] are 0.89, 103% and 200 nM.
Take `COc1cnc(C(=O)Nc2cc(F)c(F)c([C@]34COC[C@H]3C[C@](F)(CF)C(N)=N4)c2)cn1` [Example 18, N-[3-[(3R,4aS,7aS)-2-amino-3-fluoro-3-(fluoromethyl)-4,4a,5,7-tetrahydrofuro[3,4-b]pyridin-7a-yl]-4,5-difluoro-phenyl]-5-methoxy-pyrazine-2-carboxamide]: the efflux ratio at 60 min, 0.5 μM with P-gp (MDR1) stood at 1.31. Besides, the inhibition at 10 µM against human BACE1 [1] worked out at 105%. Further, the affinity on human BACE1 [2], expressed as Ki, was 110 nM.
On to `NC1=N[C@@]2(c3cc(NC(=O)c4ccc(F)cn4)ccc3F)COC[C@H]2C[C@]1(F)CF` [Example 16, N-(3-((3R,4aS,7aS)-2-amino-3-fluoro-3-(fluoromethyl)-3,4,4a,5-tetrahydrofuro[3,4-b]pyridin-7a-yl)-4-fluorophenyl)-5-fluoropicolinamide], for which the efflux ratio at 60 min, 0.5 μM in the series with P-gp (MDR1) is 0.97. Moreover, at human BACE1 [1], the inhibition at 10 µM is 110%. Further, affinity at human BACE1 [2] was put at a Ki of 88 nM.
The corresponding values for `C[C@@]1(F)C[C@]2(F)COC[C@]2(c2cc(NC(=O)c3ccc(F)cn3)ccc2F)N=C1N` [Example 12, N-(3-((3R,4aR,7aS)-2-amino-3,4a-difluoro-3-methyl-3,4,4a,5,7,7a-hexahydrofuro[3,4-b]pyridin-7a-yl)-4-fluorophenyl)-5-fluoropicolinamide] are 1.67, 103% and 24 nM.
